From US9920049B2 (priority 2014, dated 2018)

tested on: HBsAg; assay: HBsAg assay (CLIA of secreted HBsAg in HepG2.2.15 culture supernatant); assay type: cell-based, HBV; details: Hepatitis B virus
Procedure: HepG2.2.15 cells (Acs et al. Proc Natl Acad Sci USA, 84, (1987), 4641-4), a constitutively HBV-expressing cell line were cultured in DMEM+Glutamax-I medium (Invitrogen, Carlsbad, Calif., USA), supplemented with 10% fetal bovine serum (Invitrogen) and G418 (Invitrogen) at a final concentration of 200 mg/L and maintained in 5% CO2 at 37° C.
HepG2.2.15 cells were seeded in duplicate into white, 96-well plates at 1.5×10^4 cells/well. The cells were treated with a three-fold serial dilution series of the compounds in DMSO. The final DMSO concentration in all wells was 1% and DMSO was used as no drug control.
The HBsAg chemiluminescence immunoassay (CLIA) kit (Autobio Diagnostics Co., Zhengzhou, China, Catalog number: CL0310-2) was used to measure the levels of secreted HBV antigens semi-quantitatively. For the detection 50 μL/well culture supernatant was used and HBsAg was quantified using HBsAg chemiluminescence immunoassay (CLIA) kit (Autobio Diagnostics Co., Zhengzhou, China, Catalog number: CL0310-2), 50 μl of the supernatant was transferred to the CLIA assay plate and 50 μL of enzyme conjugate reagent was added into each well. The plates were sealed and gently agitated for 1 hour at room temperature. The supernatant-enzyme-mixture was discarded and wells were washed 6 times with 300 μL of PBS. The residual liquid was removed by plating the CLIA plate right side down on absorbent tissue paper. 25 μL of substrates A and B were added to each well. Luminance was measured using a luminometer (Mithras LB 940 Multimode Microplate Reader) after 10 minutes incubation. Dose-response curves were generated and the IC50 value was extrapolated by using the E-WorkBook Suite (ID Business Solutions Ltd., Guildford, UK).
The compounds of the present invention were tested for their capacity to inhibit HBsAg as described herein.

Row | SMILES | IC50 [µM]
1 | COCCCOc1cc2c(cc1Cl)-c1cc(=O)c(C(=O)Nc3nnn[nH]3)cn1C(C(C)C)C2 (stereo not drawn) [Example 37, 10-chloro-6-isopropyl-9-(3-methoxypropoxy)-2-oxo-N-(1H-tetrazol-5-yl)-6,7-dihydrobenzo[a]quinolizine-3-carboxamide] | 5.9
2 | CCC1Cc2cc(OCCCOC)c(OC)cc2-c2cc(=O)c(CN3CCCC3C(=O)O)cn21 (stereo not drawn) [Example 23, 1-[[6-ethyl-10-methoxy-9-(3-methoxypropoxy)-2-oxo-6,7-dihydrobenzo[a]quinolizin-3-yl]methyl]pyrrolidine-2-carboxylic Acid] | 17.3
3 | COCCCOc1cc2c(cc1Cl)-c1cc(=O)c(C(=O)Nc3nnn[nH]3)cn1[C@H](C(C)C)C2 [Example 38, (+)-10-chloro-6-isopropyl-9-(3-methoxypropoxy)-2-oxo-N-(1H-tetrazol-5-yl)-6,7-dihydrobenzo[a]quinolizine-3-carboxamide] | 2.3
